Test results from patent US5523314A, “Compounds useful as hypoglycemic agents and for treating Alzheimer's disease” (priority 1994, dated 1996).
Where two headings read alike, the source gives them in different places.

Key:
[1] = system: plasma glucose concentration; test: Long-term hypoglycemic activity, compound in diet, ZDF rats (Table 4); assay type: in vivo, 8 week old male Zucker Diabetic Fatty rat
Experimental: (§1) Finally, the long-term hypoglycemic activity of the compounds of the present invention was tested in yet another in vivo test system. This long-term test system entailed incorporating test compound into the test animal's diet at various concentrations (control animal's diet contained no test compound). Such diet was then fed to the test or control animals for either 14 or 21 days. Each test or control animal was then bled from the tail (200-400 μl sample of blood) at 0 (before diet started), 7, 14 and, if appropriate, 21 and 28 days after diet administration was started. Plasma samples were then obtained from each blood sample collected and the glucose concentration of such plasma samples was determined enzymatically.
(§2) Columns 4-8 provide the plasma glucose concentration at days 0, 7, 14 and, if appropriate, 21 and 28, respectively, for the animals tested. Glucose lowering was not associated with depressed diet consumption.

blood glucose level [2] = test: Hypoglycemic activity in normal fed rats (Table 2); assay type: in vivo, male Sprague Dawley rats; conditions: Rattus norvegicus, oral
Summary of the method: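 Test formulations given by oral gavage to four normal fed rats at the chosen dose. Blood glucose measured just before dosing and at 3 and 5 h by glucose oxidase/peroxidase enzymatic method with chromogenic oxygen acceptor. Means of the 4 values taken at each time.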

blood glucose level [3] = test: Hypoglycemic activity in obese diabetic Zucker rats (Table 3); assay type: in vivo, obese diabetic Zucker rat (Zucker Diabetic Fatty Rat); conditions: oral
Experimental: Male Sprague Dawley rats (Charles River Laboratories) weighing 175-200 g were used in this test system. […] The desired dose level of each test formulation was administered to four rats by oral […] at the beginning of the experiment. Blood glucose levels were determined immediately before the first dose and at 3 and 5 hours thereafter by an enzymatic procedure employing glucose oxidase and peroxidase coupled with a chromogenic oxygen acceptor. A mean was taken of the 4 values obtained before the first dose and at the 3 and 5 hour intervals.
The procedure used in this test system is the same as that described for the normal fed rat test system, above. The format of Table 3 is the same as that used in Table 2.

Human liver cathepsin D = target: T1, Human liver cathepsin D (Homo sapiens, UniProt P07339); test: Cathepsin D inhibition, fluorometric assay (Tables 5 and 6); assay type: biochemical; conditions: for inhibition at 4.15 µg/mL (stock): Compound Stock Concentration 4.15 μg/ml
T1 construct: purchased Athens Research and Technology, Athens, Ga; host or cells: human liver
Summary of the method: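 Human liver cathepsin D at 500 ng/mL in 200 mM NaOAc pH 4.5, 150 mM NaCl, incubated 30 minutes at 37° C. Reaction stopped with microsomal leucine aminopeptidase (pH 8.0), which over two hours at 37° C releases AMC from cleavage products for fluorometric reading; aminopeptidase inhibition checked with Leu-pNA.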

blood glucose level [4] = test: Hypoglycemic activity in obese diabetic mice (Table 1); assay type: in vivo, male viable yellow obese-diabetic mice; conditions: for response vs control in vivo at 25 mg/kg / response vs control in vivo at 50 mg/kg / response vs control in vivo at 10 mg/kg: Mus musculus, ip, intraperitoneal; for ability to lower blood glucose levels in mammals: compared to structurally similar compounds known in the art, in words
Summary of the method: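 Male viable yellow obese-diabetic mice, six per group, dosed intraperitoneally once with compound in saline containing 2% Emulphor. Blood glucose measured by glucose oxidase before dosing and at 2 and 4 h. Values are the 2 h and 4 h glucose as % of pre-dose level.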

[5] = system: plasma glucose concentration; test: Long-term hypoglycemic activity, compound in diet, A^vy /a mice (Table 4); assay type: in vivo, viable yellow mouse; conditions: 0.1% in diet, Male A^vy /a (Harlan)
Experimental: as §1, §2

[6] = 3 hrs, read-out: Percent of Initial Blood Glucose Level After 3 hrs.
[7] = 5 hrs, read-out: Percent of Initial Blood Glucose Level After 5 hrs.
[8] = 2 h, 2 hrs, read-out: Percent of Initial Blood Glucose Level After 2 hrs.
[9] = 4 h, 4 hrs, read-out: Percent of Initial Blood Glucose Level After 4 hrs.

T1 sequence (P07339 169-412 limits assumed): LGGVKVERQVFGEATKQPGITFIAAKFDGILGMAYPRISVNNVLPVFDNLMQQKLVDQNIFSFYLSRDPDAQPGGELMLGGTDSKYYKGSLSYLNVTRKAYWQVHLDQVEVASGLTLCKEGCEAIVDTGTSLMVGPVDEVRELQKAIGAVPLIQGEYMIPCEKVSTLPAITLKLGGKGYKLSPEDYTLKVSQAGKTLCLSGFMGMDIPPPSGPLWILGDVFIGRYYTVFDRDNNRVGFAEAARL
T1 sequence (P07339 65-161 limits assumed): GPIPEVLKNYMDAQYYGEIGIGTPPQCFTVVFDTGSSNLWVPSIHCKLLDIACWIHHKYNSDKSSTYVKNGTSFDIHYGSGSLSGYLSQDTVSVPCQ

**Q.** `CCCCCOc1ccc(C=C2SC(=S)NC2=O)cc1OC` [Example 45, 5-[(3-methoxy-4-pentoxyphenyl)methylene]-2-thioxo-4-thiazolidinone] was tested. Which “Plasma Glucose Concentration” value ([1]; 0.025% in diet, day 0 (before diet started)) did it give?
**A.** 467 mg/dL

**Q.** What about the “Plasma Glucose Concentration” value ([1]; 0.025% in diet, day 7) of the same compound?
**A.** 451 mg/dL

**Q.** What about the “Plasma Glucose Concentration” value ([1]; 0.025% in diet, day 14) of the same compound?
**A.** 452 mg/dL

**Q.** What about the “Plasma Glucose Concentration” value ([1]; 0.025% in diet, day 21) of the same compound?
**A.** 517 mg/dL

**Q.** What about the “Plasma Glucose Concentration” value ([1]; 0.1% in diet, day 21) of the same compound?
**A.** 285 mg/dL

**Q.** And the response vs control in vivo at 167 mg/kg (blood glucose level [2]; [6])?
**A.** 61%

**Q.** What about the response vs control in vivo at 167 mg/kg (blood glucose level [2]; [7]) of the same compound?
**A.** 63%

**Q.** And the “Percent of Initial Blood Glucose Level After 3 hrs.” value (blood glucose level [3]; 167 mg/kg)?
**A.** 30%

**Q.** And the “Percent of Initial Blood Glucose Level After 5 hrs.” value (blood glucose level [3]; 167 mg/kg)?
**A.** 20%

**Q.** And the inhibition at 4.15 µg/mL (stock) (Human liver cathepsin D)?
**A.** 49.5%

**Q.** And the inhibition at 8.3 µg/mL (stock) (Human liver cathepsin D; Compound Stock Concentration 8.3 μg/ml)?
**A.** 95%

**Q.** What about the response vs control in vivo at 25 mg/kg (blood glucose level [4]; [8]) of the same compound?
**A.** 93 ± 4%

**Q.** And the response vs control in vivo at 50 mg/kg (blood glucose level [4]; [8])?
**A.** 76 ± 7%

**Q.** What about the response vs control in vivo at 25 mg/kg (blood glucose level [4]; [9]) of the same compound?
**A.** 87 ± 5%

**Q.** What about the response vs control in vivo at 50 mg/kg (blood glucose level [4]; [9]) of the same compound?
**A.** 57 ± 3%

**Q.** What about the “ability to lower blood glucose levels in mammals” value (blood glucose level [4]) of the same compound?
**A.** surprising ability to lower blood glucose levels in mammals

**Q.** What about the “Plasma Glucose Concentration” value ([5]; day 0 (before diet started)) of the same compound?
**A.** 438 mg/dL

**Q.** And the “Plasma Glucose Concentration” value ([5]; day 7)?
**A.** 338 mg/dL

**Q.** And the “Plasma Glucose Concentration” value ([5]; day 14)?
**A.** 315 mg/dL

**Q.** What about the “Plasma Glucose Concentration” value ([5]; day 21) of the same compound?
**A.** 287 mg/dL

**Q.** What about the “Plasma Glucose Concentration” value ([5]; day 28) of the same compound?
**A.** 295 mg/dL

**Q.** What does the source list for `CCCCOc1ccc(C=C2SC(=S)NC2=O)cc1OCC` [Example 56, 5-[(3-ethoxy-4-butoxyphenyl)methylene]-2-thioxo-4-thiazolidinone]?
**A.** response vs control in vivo at 150 mg/kg (blood glucose level [2]; [6]): 79%; response vs control in vivo at 150 mg/kg (blood glucose level [2]; [7]): 65%; Percent of Initial Blood Glucose Level After 3 hrs. (blood glucose level [3]; 50 mg/kg): 79%; Percent of Initial Blood Glucose Level After 5 hrs. (blood glucose level [3]; 50 mg/kg): 66%; IC50 (Human liver cathepsin D): 12.3 µM; inhibition at 4.15 µg/mL (stock) (Human liver cathepsin D): 73%; ability to inhibit cathepsin D (Human liver cathepsin D; compared to structurally similar compounds known in the art, in words): surprising ability to inhibit cathepsin D levels; response vs control in vivo at 10 mg/kg (blood glucose level [4]; [8]): 94 ± 4%; response vs control in vivo at 25 mg/kg (blood glucose level [4]; [8]): 81 ± 8%; response vs control in vivo at 50 mg/kg (blood glucose level [4]; [8]): 78 ± 4%; response vs control in vivo at 10 mg/kg (blood glucose level [4]; [9]): 97 ± 4%; response vs control in vivo at 25 mg/kg (blood glucose level [4]; [9]): 75 ± 3%; response vs control in vivo at 50 mg/kg (blood glucose level [4]; [9]): 72 ± 3%; ability to lower blood glucose levels in mammals (blood glucose level [4]): surprising ability to lower blood glucose levels in mammals
